Measured values published in patent US10266526B2, “Substituted 1,2,3-triazoles as SMYD inhibitors for treating cancer” (EPIZYME, INC., priority 2014, dated 2019).
pIC50: −log10 of the molar value.

target: SMYD3 (Homo sapiens (Human), UniProt Q9H7B4); assay: SMYD3 biochemical assay (SMYD3 enzyme assay on MEKK2 protein substrate, 3H-SAM scintillation proximity assay); settings: read-out: SMYD3 Biochem IC50
Method in brief: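 Detection used scintillation proximity beads to capture ³H-methylated GST-MEKK2 after quench with 100 uM final cold SAM. The reaction was started by SAM/MEKK2 addition after a 30 min RT compound–enzyme preincubation. Enzyme was tag-free full-length human SMYD3 from E. coli, in buffer of 25 mM Tris-Cl pH 8.0, 1 mM TCEP, 0.005% BSG, 0.005% Tween 20.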

Sequence of SMYD3 (Q9H7B4 whole entry): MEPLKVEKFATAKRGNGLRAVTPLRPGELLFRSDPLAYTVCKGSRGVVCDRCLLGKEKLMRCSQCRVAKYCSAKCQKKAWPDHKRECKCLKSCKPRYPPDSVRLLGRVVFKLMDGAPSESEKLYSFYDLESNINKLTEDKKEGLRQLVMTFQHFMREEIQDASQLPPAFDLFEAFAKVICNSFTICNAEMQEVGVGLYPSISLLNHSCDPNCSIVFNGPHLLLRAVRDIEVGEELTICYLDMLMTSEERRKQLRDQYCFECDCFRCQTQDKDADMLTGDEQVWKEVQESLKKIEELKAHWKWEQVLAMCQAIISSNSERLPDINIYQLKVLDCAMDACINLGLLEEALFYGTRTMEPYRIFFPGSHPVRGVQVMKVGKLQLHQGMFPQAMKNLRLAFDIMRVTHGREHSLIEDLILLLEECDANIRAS

Compound | pIC50
CC1=NN(c2ccc(C(=O)N[C@H]3CC[C@H](NC(=O)CCN)CC3)cc2)C(=O)C1 [compound 432, N-((1r,4r)-4-(3-aminopropanamido)cyclohexyl)-4-(3-methyl-5-oxo-4,5-dihydro-1H-pyrazol-1-yl)benzamide] | 4.43
CC(NC(=O)[C@H]1C[C@H](O)CN1)C1CCN(C(=O)[C@H](C)N)CC1 (stereo partly drawn) [compound 433, (2R,4S)-N-(1-(1-(L-alanyl)piperidin-4-yl)ethyl)-4-hydroxypyrrolidine-2-carboxamide] | 4.34
NCCC(=O)N[C@H]1CC[C@H](NC(=O)[C@H]2C[C@H](O)CN2)CC1 [compound 434, (2R,4S)-N-((1r,4r)-4-(3-aminopropanamido)cyclohexyl)-4-hydroxypyrrolidine-2-carboxamide] | < 4.00
N[C@H]1CC[C@H](NC(=O)[C@H]2C[C@H](O)CN2)CC1 [compound 435, (2R,4S)-N-((1r,4r)-4-aminocyclohexyl)-4-hydroxypyrrolidine-2-carboxamide] | < 4.00
N[C@H]1CC[C@H](NC(=O)[C@H]2CCc3ccccc3N2)CC1 [compound 436, (R)-N-((1r,4r)-4-aminocyclohexyl)-1,2,3,4-tetrahydroquinoline-2-carboxamide] | 4.90
NCCC(=O)N[C@H]1CC[C@H](NC(=O)c2ccc(N)cn2)CC1 [compound 437, 5-amino-N-((1r,4r)-4-(3-aminopropanamido)cyclohexyl)picolinamide] | < 4.00
Nc1ccc(C(=O)N[C@H]2CC[C@H](N)CC2)nc1 [compound 438, 5-amino-N-((1r,4r)-4-aminocyclohexyl)picolinamide] | < 4.00
NCCC(=O)N[C@H]1CC[C@H](NC(=O)c2ccc(Cl)cc2C(F)(F)F)CC1 [compound 439, N-((1r,4r)-4-(3-aminopropanamido)cyclohexyl)-4-chloro-2-(trifluoromethyl)benzamide] | < 4.00
NCCC(=O)N[C@H]1CC[C@H](NC(=O)c2cccc3c2OC(F)(F)O3)CC1 [compound 440, N-((1r,4r)-4-(3-aminopropanamido)cyclohexyl)-2,2-difluorobenzo[d][1,3]dioxole-4-carboxamide] | < 4.00
CC(NC(=O)c1cc2cccc(O)c2cc1O)C1CCN(C(=O)[C@H](C)N)CC1 (stereo partly drawn) [compound 441, N-(1-(1-(L-alanyl)piperidin-4-yl)ethyl)-3,5-dihydroxy-2-naphthamide] | 4.43
NCCC(=O)N[C@H]1CC[C@H](NC(=O)c2cncs2)CC1 [compound 442, N-((1r,4r)-4-(3-aminopropanamido)cyclohexyl)thiazole-5-carboxamide] | < 4.00
NCCC(=O)N[C@H]1CC[C@H](NC(=O)Cc2cc(F)cc(F)c2)CC1 [compound 443, 3-amino-N-((1r,4r)-4-(2-(3,5-difluorophenyl)acetamido)cyclohexyl)propanamide] | < 4.00
CC(=O)Nc1ccc(C(=O)N[C@H]2CC[C@H](N)CC2)nc1 [compound 444, 5-acetamido-N-((1r,4r)-4-aminocyclohexyl)picolinamide] | < 4.00
CC(NC(=O)c1cn2ncccc2n1)C1CCN(C(=O)[C@H](C)N)CC1 (stereo partly drawn) [compound 445, N-(1-(1-(L-alanyl)piperidin-4-yl)ethyl)imidazo[1,2-b]pyridazine-2-carboxamide] | < 4.00
NCCC(=O)N[C@H]1CC[C@H](NC(=O)c2cn3ncccc3n2)CC1 [compound 446, N-((1r,4r)-4-(3-aminopropanamido)cyclohexyl)imidazo[1,2-b]pyridazine-2-carboxamide] | < 4.00
N[C@H]1CC[C@H](NC(=O)c2cn3ncccc3n2)CC1 [compound 447, N-((1r,4r)-4-aminocyclohexyl)imidazo[1,2-b]pyridazine-2-carboxamide] | < 4.00
N[C@H]1CC[C@H](NC(=O)Cc2ccc3c(c2)CC(=O)N3)CC1 [compound 448, N-((1r,4r)-4-aminocyclohexyl)-2-(2-oxoindolin-5-yl)acetamide] | < 4.00
NCCC(=O)N[C@H]1CC[C@H](NS(=O)(=O)c2ccc3c(c2)CC(=O)N3)CC1 [compound 449, 3-amino-N-((1r,4r)-4-((2-oxoindoline)-5-sulfonamido)cyclohexyl)propanamide] | < 4.00
CC1Oc2ccc(C(=O)NC(C)C3CCN(C(=O)[C@H](C)N)CC3)cc2NC1=O (stereo partly drawn) [compound 450, N-(1-(1-(L-alanyl)piperidin-4-yl)ethyl)-2-methyl-3-oxo-3,4-dihydro-2H-benzo[b][1,4]oxazine-6-carboxamide] | 4.60
CC1Oc2ccc(C(=O)N[C@H]3CC[C@H](NC(=O)CCN)CC3)cc2NC1=O (stereo partly shown) [compound 451, N-((1r,4r)-4-(3-aminopropanamido)cyclohexyl)-2-methyl-3-oxo-3,4-dihydro-2H-benzo[b][1,4]oxazine-6-carboxamide] | 5.00
CC1Oc2ccc(C(=O)N[C@H]3CC[C@H](N)CC3)cc2NC1=O (stereo partly shown) [compound 452, N-((1r,4r)-4-aminocyclohexyl)-2-methyl-3-oxo-3,4-dihydro-2H-benzo[b][1,4]oxazine-6-carboxamide] | 4.41
Cc1nn(C(C)C(=O)N[C@H]2CC[C@H](N)CC2)c(C)c1Br (stereo partly shown) [compound 454, N-((1r,4r)-4-aminocyclohexyl)-2-(4-bromo-3,5-dimethyl-1H-pyrazol-1-yl)propanamide] | < 4.00

Compound | pIC50
N[C@H]1CC[C@H](NC(=O)c2ccc(-n3cncn3)cc2)CC1 [compound 455, N-((1r,4r)-4-aminocyclohexyl)-4-(1H-1,2,4-triazol-1-yl)benzamide] | < 4.00
NCCC(=O)N[C@H]1CC[C@H](NC(=O)c2cc3ccccc3nc2O)CC1 [compound 456, N-((1r,4r)-4-(3-aminopropanamido)cyclohexyl)-2-hydroxyquinoline-3-carboxamide] | 4.66
N[C@H]1CC[C@H](NC(=O)Cc2cccc(C(F)(F)F)c2)CC1 [compound 457, N-((1r,4r)-4-aminocyclohexyl)-2-(3-(trifluoromethyl)phenyl)acetamide] | < 4.00
Cc1nc2ccccc2c(C(=O)N[C@H]2CC[C@H](N)CC2)c1N [compound 458, 3-amino-N-((1r,4r)-4-aminocyclohexyl)-2-methylquinoline-4-carboxamide] | < 4.00
NC1CCC(NC(=O)[C@H]2Cc3ccccc3CN2)CC1 (stereo partly drawn) [compound 459, (3R)-N-(4-aminocyclohexyl)-1,2,3,4-tetrahydroisoquinoline-3-carboxamide] | < 4.00
N[C@H]1CC[C@H](NC(=O)c2cc3cccc(O)c3cc2O)CC1 [compound 460, N-((1r,4r)-4-aminocyclohexyl)-3,5-dihydroxy-2-naphthamide] | 4.68
O=C1CC2CN(C(=O)CC3CCNCC3)CCC2N1 (stereo not shown) [compound 461, 5-(2-(piperidin-4-yl)acetyl)octahydro-2H-pyrrolo[3,2-c]pyridin-2-one] | < 4.00
CC(=O)Nc1ccc(C(=O)NC(C)C2CCN(C(=O)[C@H](C)N)CC2)nc1 (stereo partly drawn) [compound 462, N-(1-(1-(L-alanyl)piperidin-4-yl)ethyl)-5-acetamidopicolinamide] | < 4.00
CC(=O)Nc1ccc(C(=O)N[C@H]2CC[C@H](NC(=O)CCN)CC2)nc1 [compound 463, 5-acetamido-N-((1r,4r)-4-(3-aminopropanamido)cyclohexyl)picolinamide] | < 4.00
CC(NC(=O)c1noc(C2CC2)n1)C1CCN(C(=O)[C@H](C)N)CC1 (stereo partly drawn) [compound 464, N-(1-(1-(L-alanyl)piperidin-4-yl)ethyl)-5-cyclopropyl-1,2,4-oxadiazole-3-carboxamide] | 4.49
NCCC(=O)N[C@H]1CC[C@H](NC(=O)Cc2ccc3c(c2)CC(=O)N3)CC1 [compound 465, 3-amino-N-((1r,4r)-4-(2-(2-oxoindolin-5-yl)acetamido)cyclohexyl)propanamide] | 4.41
CC(NC(=O)Cc1ccc2c(c1)CC(=O)N2)C1CCN(C(=O)[C@H](C)N)CC1 (stereo partly drawn) [compound 466, N-(1-(1-(L-alanyl)piperidin-4-yl)ethyl)-2-(2-oxoindolin-5-yl)acetamide] | 4.22
NCCC(=O)N[C@H]1CC[C@H](C(=O)Nc2ccc3c(c2)CC(=O)N3)CC1 [compound 467, (1r,4r)-4-(3-aminopropanamido)-N-(2-oxoindolin-5-yl)cyclohexane-1-carboxamide] | 5.35
CC(C)(CNC(=O)CCN)CNS(=O)(=O)c1ccc2c(c1)CC(=O)N2 [compound 468, 3-amino-N-(2,2-dimethyl-3-((2-oxoindoline)-5-sulfonamido)propyl)propanamide] | 4.74
CC(NC(=O)c1ccc2c(c1)CNC2=O)C1CCN(C(=O)[C@H](C)N)CC1 (stereo partly drawn) [compound 469, N-(1-(1-(L-alanyl)piperidin-4-yl)ethyl)-1-oxoisoindoline-5-carboxamide] | < 4.00
N[C@H]1CC[C@H](NC(=O)c2ccc3c(c2)C(=O)C(=O)N3)CC1 [compound 470, N-((1r,4r)-4-aminocyclohexyl)-2,3-dioxoindoline-5-carboxamide] | 5.13
NCCC(=O)N[C@H]1CC[C@H](NC(=O)c2ccc3c(c2)CC(=O)N3)CC1 [compound 471, N-((1r,4r)-4-(3-aminopropanamido)cyclohexyl)-2-oxoindoline-5-carboxamide] | 6.21
CC(NC(=O)c1ccc(-n2cncn2)cc1)C1CCN(C(=O)[C@H](C)N)CC1 (stereo partly drawn) [compound 472, N-(1-(1-(L-alanyl)piperidin-4-yl)ethyl)-4-(1H-1,2,4-triazol-1-yl)benzamide] | < 4.00
NCCC(=O)N[C@H]1CC[C@H](NC(=O)c2ccc(-n3cncn3)cc2)CC1 [compound 473, N-((1r,4r)-4-(3-aminopropanamido)cyclohexyl)-4-(1H-1,2,4-triazol-1-yl)benzamide] | 4.27
CC(NC(=O)c1cc2ccccc2nc1O)C1CCN(C(=O)[C@H](C)N)CC1 (stereo partly drawn) [compound 474, N-(1-(1-(L-alanyl)piperidin-4-yl)ethyl)-2-hydroxyquinoline-3-carboxamide] | 4.66
N[C@H]1CC[C@H](NC(=O)c2cc3ccccc3nc2O)CC1 [compound 475, N-((1r,4r)-4-aminocyclohexyl)-2-hydroxyquinoline-3-carboxamide] | 4.65
